Measured values from patent US20180243363A1, “NEUROKININ 1 RECEPTOR AGONIST MEDIATED PROTECTION OF THE EYE” (WAYNE STATE UNIVERSITY, priority 2016, published 2018).
Where a SMILES comes first, the peptide text is derived from it. [ ]: non-standard residue; d: D form. NMeL = CN[C@@H](CC(C)C)C(=O)O; Ava = NCCCCC(=O)O

Tests used:
NK1R [1] = molecular target: T1, NK1R (Mus musculus, UniProt P30548); assay: Phenol red thread tear volume after ocular HSV-1 infection, GR73632 I.P. treatment; type: in vivo, mice; parameters: from tissue; host or cells: living mice (in vivo; eye / tear read-out after systemic dosing); settings: GR73632 I.P. treated vs control treated group
Experimental: FIGS. 12A, 12B. Increased tear volume at D7 and D10 post ocular HSV-1 infection (POI) in GR73632 I.P treated eyes compared to the control treated group. Phenol Red thread (yellow color) images showing the thread wetness (red color) measured in mm.
Corneal HSV-1 infection. To carry out ocular HSV-1 infection, mice were first anesthetized by intra-peritoneal injection of Ketamine (33 mg/Kg bodyweight)+Xylazine (20 mg/Kg bodyweight) in 0.2 ml PBS. The cornea was scarified with trephine (Fine Science Tools, Foster City, Calif.) while twisting three to four times over the corneal surface. 1×10^4 plaque forming units (p.f.u) of HSV-1 virus were then topically applied with a pipette to the eye in 3 μL of 1×PBS followed by gentle massage of the eyelids.
(§1) Phenol red thread tear test. To measure the tear levels in the eyes of unmanipulated B6 and NK1R^−/− mice, pH indicator phenol red treated cotton threads were obtained from Zone-Quick (ZQ-1010, Showa Yakuhin Kako, Japan). The mice were restrained by holding the lose skin at the base of the neck without touching the facial skin or whiskers. The eyes were tested for tear level by placing the tip of the cotton thread on the bulbar conjunctiva of the lateral canthus for 30 seconds. A picture of the threads was taken and tear absorption was measured using a 10 cm scale.

NK1R [2] = molecular target: T1, NK1R; assay: Tear film (basal tear volume) after systemic NK1R antagonist administration; type: in vivo; parameters: from tissue; host or cells: living C57Bl/6 mice (in vivo; basal tear volume); settings: systemic treatment, C57Bl/6 mice
Experimental: FIG. 14. Alteration in Tear Film after NK1R antagonist administration.
as §1

T1 sequence (P30548 whole entry): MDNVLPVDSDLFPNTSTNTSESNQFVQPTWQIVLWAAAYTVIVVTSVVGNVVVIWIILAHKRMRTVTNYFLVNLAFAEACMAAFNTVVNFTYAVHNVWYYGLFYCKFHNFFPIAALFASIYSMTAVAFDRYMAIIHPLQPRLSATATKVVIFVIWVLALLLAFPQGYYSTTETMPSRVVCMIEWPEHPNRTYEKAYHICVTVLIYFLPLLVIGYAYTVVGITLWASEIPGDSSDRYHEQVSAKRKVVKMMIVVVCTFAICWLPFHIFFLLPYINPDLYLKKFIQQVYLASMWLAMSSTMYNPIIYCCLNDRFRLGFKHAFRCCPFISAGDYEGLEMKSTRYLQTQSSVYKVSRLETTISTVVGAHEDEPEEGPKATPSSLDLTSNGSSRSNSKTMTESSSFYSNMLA

| tear volume (phenol red thread wetness) (NK1R [1]; D7 post ocular HSV-1 infection, p<0.05) | tear volume (phenol red thread wetness) (NK1R [1]; D10 post ocular HSV-1 infection, p<0.01) | volume of basal tears (NK1R [2]) | Compound |
| --- | --- | --- | --- |
| Significant increase in tear volume | Significant increase in tear volume |  | CSCC[C@H](NC(=O)[C@H](CC(C)C)N(C)C(=O)[C@@H]1CCCN1C(=O)[C@H](Cc1ccccc1)NC(=O)[C@H](Cc1ccccc1)NC(=O)CCCCN)C(N)=O [GR73632] (H-[Ava]FFP[NMeL]M-NH2) |
|  |  | reduces the volume of basal tears | Spantide I |
